Measured values taken from US20250313596A1, “BACILLUS SUBTILIS STRAINS PRODUCING NEW MYCOSUBTILIN ISOFORMS” (Universite de Lille, priority 2022, published 2025).
Converted amounts (≈) assume the structure as drawn. Where two headings read alike, the source gives them in different places. Where a SMILES comes first, the peptide text is derived from it. [ ]: non-standard residue; d: D form.

Key:
B. cinerea [1] = format: cell-based; details: for ECS0 (μg/ml) B. cinerea: concentration that reduces fungal strain growth by 50%; for EC95 (μg/ml) B. cinerea: concentration that reduces pathogen growth by 95%
Method: (§1) Three different fungal strains were tested for their antifungal activity: B. cinerea, Aspergillus sp. and Z. tritici. In addition to the two conventional isoforms, three new isoforms are being tested for their antifungal properties. A range of concentrations (μg a.i./ml or ppm) 0; 0.0037; 0.0146; 0.0586; 0.2344; 0.9375; 3.75 and 15 is used to determine the activity coefficient. Based on this concentration range, the EC50 (concentration that reduces fungal strain growth by 50%) and EC95 (concentration that reduces pathogen growth by 95%) were calculated and presented as disclosed in Table 5.
4.1 Antifungal Activity on B. cinerea

Aspergillus sp. = format: cell-based
Method: as §1
4.2 Antifungal Activity on Aspergillus sp.

Z. tritici = format: cell-based; details: for ECS0 (μg/ml) Z. tritici: concentration that reduces fungal strain growth by 50%; for EC95 (μg/ml) Z. tritici: concentration that reduces pathogen growth by 95%
Method: as §1
4.3 Antifungal Activity on Z. Tritici

Vero cells = format: cell-based
Method: The cytotoxicity test is performed using Vero cells and the CyQUANT™ XTT Cell Viability assay kit (supplied by Invitrogen™).
Samples are dissolved in 100% DMSO at a concentration of 20-50 g/L. The final concentration in DMEM medium is 40 μg/L. Cells were prepared in flasks containing DMEM cell culture medium with 10% FBS as follows:
A 175 ml flask containing 20-30 million cells with 25 ml medium and 2 ml trypsin was added. Then the medium was discarded as the cells were attached to the flask wall. Rinse twice with PBS, then trypsin was added to detach cells from the flask wall. The mixture was incubated for 5 min at 37° C. To inactivate trypsin, 6 ml […] was added to the medium (twice the volume of the original trypsin in the medium).
In a 50 ml flask, the medium was centrifuged for 5 min at 300 g. […]. The medium was discarded, and the cells were resuspended. 100 μL of cells were added to 100 μL of dye, then 12 μL was used for counting. The percentage of viability was compared with a control of cells without any treatment.
The test is performed in a 96-well plate. A range of concentrations (mg/l) 0.14; 0.28; 0.56; 1.16; 2.25; 4.5 is used to determine the toxicity limit of each isoform.

rats = details: 28-day treatment and 14 days recovery period; cited from earlier work
B. cinerea [2] = details: Béchet et al., 2013; cited from earlier work
A. niger = details: Guez et al., 2022; cited from earlier work

CCCCCCCCCCCCCC[C@@H]1CC(=O)N[C@@H](CC(N)=O)C(=O)N[C@H](Cc2ccc(O)cc2)C(=O)N[C@H](CCC(N)=O)C(=O)N[C@@H](CCC(N)=O)C(=O)N2CCC[C@H]2C(=O)N[C@H](CO)C(=O)N[C@@H](CC(N)=O)C(=O)N1 [Gln3-C17] (HELM PEPTIDE1{N.[dY].[dQ].Q.P.[dS].N.[CCCCCCCCCCCCCC[C@H](CC(=O)[*:2])N[*:1]]}$PEPTIDE1,PEPTIDE1,1:R1-8:R2$$$V2.0)
ECS0 (μg/ml) B. cinerea (B. cinerea [1]): 1.646 µg/mL
EC95 (μg/ml) B. cinerea (B. cinerea [1]): 3.437 µg/mL (≈ 3.13 µM)
ECS0 (μg/ml) Aspergillus sp. (Aspergillus sp.; concentration that reduces fungal strain growth by 50%): 6.335 µg/mL
EC95 (μg/ml) Aspergillus sp. (Aspergillus sp.; concentration that reduces pathogen growth by 95%): 13.659 µg/mL (≈ 12.4 µM)
ECS0 (μg/ml) Z. tritici (Z. tritici): 4.314 µg/mL
EC95 (μg/ml) Z. tritici (Z. tritici): 16.078 µg/mL (≈ 14.6 µM)
EC50 (cell viability) (Vero cells): over 4.5 mg/L

Iturin A
toxic effects on organs, in words (rats): no toxic effects on the lungs, heart and kidneys

CCCCCCCCCCCCCC1CC(=O)N[C@@H](CCC(N)=O)C(=O)N[C@H](Cc2ccc(O)cc2)C(=O)N[C@H](CC(N)=O)C(=O)N[C@@H](CCC(N)=O)C(=O)N2CCC[C@H]2C(=O)N[C@H](CO)C(=O)N[C@@H](CC(N)=O)C(=O)N1 (some centres unmarked) [Gln1-C16]
EC50 value (B. cinerea [1]): 1.048 ppm
EC50 value (Z. tritici): 1.906 ppm
EC50 (cell viability) (Vero cells): 4.5 µg/mL (≈ 4.15 µM)
toxicity compared with the conventional isoform, in words (Vero cells): significantly less toxic than the conventional A-C16 isoform

CCCCCCCCCCCCCC[C@@H]1CC(=O)N[C@@H](CCC(N)=O)C(=O)N[C@H](Cc2ccc(O)cc2)C(=O)N[C@H](CC(N)=O)C(=O)N[C@@H](CCC(N)=O)C(=O)N2CCC[C@H]2C(=O)N[C@H](CO)C(=O)N[C@@H](CC(N)=O)C(=O)N1 [Gln1-C17]
antifungal efficacy in words (B. cinerea [1]; B. cinerea): effective against this fungal strain, but at higher concentrations
ECS0 (μg/ml) B. cinerea (B. cinerea [1]): 0.920 µg/mL
EC95 (μg/ml) B. cinerea (B. cinerea [1]): 1.117 µg/mL (≈ 1.02 µM)
EC50 value (Aspergillus sp.): 1.019 ppm
EC95 value (Aspergillus sp.; Aspergillus sp.): 1.290 ppm
antifungal efficacy in words (Aspergillus sp.; Aspergillus sp.): effective against this fungal strain
antifungal efficacy in words (Z. tritici; Z. tritici): effective against this fungal strain, but at a higher concentration
ECS0 (μg/ml) Z. tritici (Z. tritici): 2.156 µg/mL
EC95 (μg/ml) Z. tritici (Z. tritici): 17.040 µg/mL (≈ 15.5 µM)
EC50 (cell viability) (Vero cells): around 3.4 mg/L

conventional C17 isoform of mycosubtilin, ring Asn-Tyr-Asn-Gln-Pro-Ser-Asn (peaks 5, 6, 7; FIG. 1) (cyclo(N[dY][dN]QP[dS]N); not fully specified (N-terminus)) [A-C17]
ECS0 (μg/ml) B. cinerea (B. cinerea [1]): 0.467 µg/mL
EC95 (μg/ml) B. cinerea (B. cinerea [1]): 0.677 µg/mL
EC50 value (Aspergillus sp.; Aspergillus sp.): 1.191 ppm
EC95 value (Aspergillus sp.; Aspergillus sp.): 1.905 ppm
higher concentration of the former required to have the same activity as the latter (Aspergillus sp.; EC50, A-C17 versus Gln1-C17): 14%
higher concentration of the former required to have the same activity as the latter (Aspergillus sp.; EC95, A-C17 versus Gln1-C17): 32%
ECS0 (μg/ml) Z. tritici (Z. tritici): 0.943 µg/mL
EC95 (μg/ml) Z. tritici (Z. tritici): 18.010 µg/mL
EC50 (cell viability) (Vero cells; Vero cells, XTT, range 0.14-4.5 mg/l, determined from FIG. 7): around 1.7 mg/L

CCCCCCCCCCCCCC1CC(=O)N[C@@H](CC(N)=O)C(=O)N[C@H](Cc2ccc(O)cc2)C(=O)N[C@H](CCC(N)=O)C(=O)N[C@@H](CCC(N)=O)C(=O)N2CCC[C@H]2C(=O)N[C@H](CO)C(=O)N[C@@H](CC(N)=O)C(=O)N1 (some centres unmarked) [Gln3-C16]
EC50 (cell viability) (Vero cells): over 4.5 mg/L
toxicity compared with the conventional isoform, in words (Vero cells): significantly less toxic than the conventional A-C16 isoform

n-C16
MIC (B. cinerea [2]): 16 µM
MIC (A. niger): 16 µM
